# Test results taken from BindingDB's records for doi:10.1021/jm00096a017 (Kyowa Hakko Kogyo, 1992).
# Assay: Compound was tested for its binding affinity at Thromboxane A2/ Prostaglandin H2 receptor by measuring its ability to displace [3H]U-46619 from guinea pig platelets
row,Ki,SMILES
1,1.8 nM,O=C(O)c1ccc2c(c1)/C(=C/Cn1cnc3cc([N+](=O)[O-])ccc31)c1ccccc1CO2
2,18 nM,Cc1cc2ncn(CCC3c4ccccc4COc4ccc(C(=O)O)cc43)c2cc1C (centres undefined)
3,6 nM,O=C(O)c1ccc2c(c1)/C(=C/Cn1cnc3cc(Cl)ccc31)c1ccccc1CO2
4,2.2 nM,O=C(O)c1ccc2c(c1)/C(=C/Cn1cnc3cc(C(F)(F)F)ccc31)c1ccccc1CO2
5,2.7 nM,O=C(O)c1ccc2c(c1)/C(=C/Cn1cnc3cc4c(cc31)OCO4)c1ccccc1CO2
6,17 nM,O=C(O)c1ccc2c(c1)/C(=C/Cn1cnc3ccc(C(O)c4ccccc4)cc31)c1ccccc1CO2 (centres undefined)
7,15 nM,O=C(O)c1ccc2c(c1)/C(=C/Cn1cnc3ccc(Cl)cc31)c1ccccc1CO2
8,0.91 nM,O=C(O)c1ccc2c(c1)/C(=C/Cn1cnc3cc(C(=O)NCc4ccccc4)ccc31)c1ccccc1CO2
9,88 nM,COc1cc(OC)c2ncn(C/C=C3\c4ccccc4COc4ccc(C(=O)O)cc43)c2c1
10,3.2 nM,COc1ccc2c(c1)ncn2C/C=C1\c2ccccc2COc2ccc(C(=O)O)cc21
11,1300 nM,Cc1cc2ncn(C/C=C3\c4cc(C(=O)O)ccc4COc4ccccc43)c2cc1C
12,63 nM,Cc1cc2ncn(C/C=C3\c4ccccc4COc4ccc(CC(=O)O)cc43)c2cc1C
13,8.3 nM,O=C(O)c1ccc2c(c1)/C(=C/Cn1cnc3cc(F)ccc31)c1ccccc1CO2
14,6.1 nM,COc1cc(OC)c2c(c1)ncn2C/C=C1\c2ccccc2COc2ccc(C(=O)O)cc21
15,30 nM,O=C(O)c1ccc2c(c1)/C(=C/Cn1cnc3cc(C(=O)O)ccc31)c1ccccc1CO2
16,3.4 nM,COc1cc2ncn(C/C=C3\c4ccccc4COc4ccc(C(=O)O)cc43)c2cc1OC
17,164 nM,O=C(O)c1ccc2c(c1)/C(=C/Cn1cnc(-c3ccccc3)c1-c1ccccc1)c1ccccc1CO2
18,17 nM,Cc1cccc2c1ncn2C/C=C1\c2ccccc2COc2ccc(C(=O)O)cc21
19,12 nM,COc1ccc2ncn(C/C=C3\c4ccccc4COc4ccc(C(=O)O)cc43)c2c1
20,15 nM,Cc1ccc2c(c1)ncn2C/C=C1\c2ccccc2COc2ccc(C(=O)O)cc21
21,3.6 nM,Cc1ccc2c(ncn2C/C=C2\c3ccccc3COc3ccc(C(=O)O)cc32)c1C
22,11 nM,O=C(O)c1ccc2c(c1)/C(=C/CNS(=O)(=O)c1ccccc1)c1ccccc1CO2
23,23 nM,Cc1ccc2ncn(C/C=C3\c4ccccc4COc4ccc(C(=O)O)cc43)c2c1
24,1800 nM,Cc1cc2ncn(C/C=C3\c4ccccc4COc4cc(C(=O)O)ccc43)c2cc1C
25,6.1 nM,O=C(O)c1ccc2c(c1)/C(=C/Cn1cnc3cc(C(O)c4ccccc4)ccc31)c1ccccc1CO2 (centres undefined)
26,280 nM,O=C(O)c1ccc2c(c1)/C(=C/Cn1cnc3cc4ccccc4cc31)c1ccccc1CO2
27,64 nM,Cc1cc2ncn(C/C=C3/c4ccccc4COc4ccc(C(=O)O)cc43)c2cc1C
28,2.7 nM,"Cc1cc2ncn(C/C=C3\c4ccccc4COc4ccc(C(=O)O)cc43)c2cc1C [11-[2-(5,6-Dimethyl-benzoimidazol-1-yl)-ethylidene]-6,11-dihydro-dibenzo[b,e]oxepine-2-carboxylic acid (0.5H2O)]"

row,SMILES,Ki
1,O=C(O)c1ccc2c(c1)/C(=C\Cn1cnc3ccccc31)c1ccccc1CO2,15 nM
